PubChem BioAssay AID1259407 (Chemical Carcinogenesis Research Information System (CCRIS), 2018)
Active and inactive are the calls of the source. The rule behind the calls is not given here.

System: CCRIS mutagenicity, Ames/micronucleus/aberration tests
Test: CCRIS mutagenicity studies
[1] = Test System: AMES SALMONELLA TYPHIMURIUM, Strain/Indicator: TA98, Metabolic Activation: HAMSTER, LIVER, S-9, AROCLOR 1254 (10%), Method: PREINCUBATION
[2] = Test System: AMES SALMONELLA TYPHIMURIUM, Strain/Indicator: TA98, Metabolic Activation: NONE, Method: PREINCUBATION
[3] = Test System: AMES SALMONELLA TYPHIMURIUM, Strain/Indicator: TA98, Metabolic Activation: RAT, LIVER, S-9, AROCLOR 1254 (10%), Method: PREINCUBATION
[4] = Test System: AMES SALMONELLA TYPHIMURIUM, Strain/Indicator: TA100, Metabolic Activation: HAMSTER, LIVER, S-9, AROCLOR 1254 (10%), Method: PREINCUBATION
[5] = Test System: AMES SALMONELLA TYPHIMURIUM, Strain/Indicator: TA100, Metabolic Activation: NONE, Method: PREINCUBATION
[6] = Test System: AMES SALMONELLA TYPHIMURIUM, Strain/Indicator: TA100, Metabolic Activation: RAT, LIVER, S-9, AROCLOR 1254 (10%), Method: PREINCUBATION
[7] = Test System: AMES SALMONELLA TYPHIMURIUM, Strain/Indicator: TA1535, Metabolic Activation: HAMSTER, LIVER, S-9, AROCLOR 1254 (10%), Method: PREINCUBATION
[8] = Test System: AMES SALMONELLA TYPHIMURIUM, Strain/Indicator: TA1535, Metabolic Activation: NONE, Method: PREINCUBATION
[9] = Test System: AMES SALMONELLA TYPHIMURIUM, Strain/Indicator: TA1535, Metabolic Activation: RAT, LIVER, S-9, AROCLOR 1254 (10%), Method: PREINCUBATION

SMILES: O=C1OC(c2ccc(O)cc2)(c2ccc(O)cc2)c2ccccc21
- mutagenic call (End Point: In vivo micronucleus, Test System: Peripheral blood normochromatic erythrocytes, Species: Mouse, Strain/Sex: Haploinsufficient p16(Ink4a)p19(Arf), Route: Oral): active; positive
- mutagenic call (End Point: In vivo micronucleus, Test System: Polychromatic erythrocytes, Species: Mouse, Strain/Sex: C57BL/6TacBr-[KO]p53[TSG-p53], Route: Oral): active; positive at all days
- mutagenic call [1]: inactive; negative
- mutagenic call [2]: inactive; negative
- mutagenic call [3]: inactive; negative
- mutagenic call [4]: inactive; negative
- mutagenic call [5]: inactive; negative
- mutagenic call [6]: inactive; negative
- mutagenic call [7]: inactive; negative
- mutagenic call [8]: inactive; negative
- mutagenic call [9]: inactive; negative
- mutagenic call (Test System: AMES SALMONELLA TYPHIMURIUM, Strain/Indicator: TA1537, Metabolic Activation: HAMSTER, LIVER, S-9, AROCLOR 1254 (10%), Method: PREINCUBATION): inactive; negative
- mutagenic call (Test System: AMES SALMONELLA TYPHIMURIUM, Strain/Indicator: TA1537, Metabolic Activation: NONE, Method: PREINCUBATION): inactive; negative
- mutagenic call (Test System: AMES SALMONELLA TYPHIMURIUM, Strain/Indicator: TA1537, Metabolic Activation: RAT, LIVER, S-9, AROCLOR 1254 (10%), Method: PREINCUBATION): inactive; negative
- mutagenic call (Test System: Syrian hamster embryo cells, Strain/Indicator: HPRT/6-thioguanine, Method: Plate): active; positive

SMILES: c1ccc(Nc2ccc3ccccc3c2)cc1
- mutagenic call (End Point: IN VITRO CHROMOSOMAL ABERRATIONS, Test System: CHINESE HAMSTER LUNG CELLS (CHL), Metabolic Activation: NONE): inactive; negative
- mutagenic call (End Point: IN VITRO CHROMOSOMAL ABERRATIONS, Test System: CHINESE HAMSTER LUNG CELLS (CHL), Metabolic Activation: RAT, LIVER, S-9, KC-400): active; positive (structural changes)
- mutagenic call (End Point: IN VITRO CHROMOSOMAL ABERRATIONS, Test System: CHINESE HAMSTER OVARY CELLS (CHO), Metabolic Activation: NONE): inactive; negative
- mutagenic call (End Point: IN VITRO CHROMOSOMAL ABERRATIONS, Test System: CHINESE HAMSTER OVARY CELLS (CHO), Metabolic Activation: RAT, LIVER, S-9, AROCLOR 1254): inactive; negative
- mutagenic call (End Point: IN VITRO CHROMOSOMAL ABERRATIONS, Test System: CHO CELLS, Metabolic Activation: NONE): inactive; negative
- mutagenic call (End Point: IN VITRO CHROMOSOMAL ABERRATIONS, Test System: CHO CELLS, Metabolic Activation: RAT, LIVER, S-9, AROCLOR 1254): inactive; negative
- mutagenic call (Test System: AMES SALMONELLA TYPHIMURIUM, Strain/Indicator: TA97, Metabolic Activation: HAMSTER, LIVER, S-9, AROCLOR 1254 (10%), Method: PREINCUBATION): inactive; negative
- mutagenic call (Test System: AMES SALMONELLA TYPHIMURIUM, Strain/Indicator: TA97, Metabolic Activation: HAMSTER, LIVER, S-9, AROCLOR 1254 (30%), Method: PREINCUBATION): inactive; negative
- mutagenic call (Test System: AMES SALMONELLA TYPHIMURIUM, Strain/Indicator: TA97, Metabolic Activation: HAMSTER, LIVER, S-9, AROCLOR 1254, Method: PREINCUBATION): inactive; negative
- mutagenic call (Test System: AMES SALMONELLA TYPHIMURIUM, Strain/Indicator: TA97, Metabolic Activation: NONE, Method: PREINCUBATION): inactive; negative
- mutagenic call (Test System: AMES SALMONELLA TYPHIMURIUM, Strain/Indicator: TA97, Metabolic Activation: RAT, LIVER, S-9, AROCLOR 1254 (10%), Method: PREINCUBATION): inactive; negative
- mutagenic call (Test System: AMES SALMONELLA TYPHIMURIUM, Strain/Indicator: TA97, Metabolic Activation: RAT, LIVER, S-9, AROCLOR 1254 (30%), Method: PREINCUBATION): inactive; negative
- mutagenic call (Test System: AMES SALMONELLA TYPHIMURIUM, Strain/Indicator: TA97, Metabolic Activation: RAT, LIVER, S-9, AROCLOR 1254, Method: PREINCUBATION): inactive; negative
- mutagenic call [1]: inactive; negative
- mutagenic call (Test System: AMES SALMONELLA TYPHIMURIUM, Strain/Indicator: TA98, Metabolic Activation: HAMSTER, LIVER, S-9, AROCLOR 1254 (30%), Method: PREINCUBATION): inactive; negative
- mutagenic call (Test System: AMES SALMONELLA TYPHIMURIUM, Strain/Indicator: TA98, Metabolic Activation: HAMSTER, LIVER, S-9, AROCLOR 1254, Method: PREINCUBATION): inactive; negative
- mutagenic call [2]: inactive; negative
- mutagenic call [3]: inactive; negative
- mutagenic call (Test System: AMES SALMONELLA TYPHIMURIUM, Strain/Indicator: TA98, Metabolic Activation: RAT, LIVER, S-9, AROCLOR 1254 (30%), Method: PREINCUBATION): inactive; negative
- mutagenic call (Test System: AMES SALMONELLA TYPHIMURIUM, Strain/Indicator: TA98, Metabolic Activation: RAT, LIVER, S-9, AROCLOR 1254, Method: PREINCUBATION): inactive; negative
- mutagenic call [4]: inactive; negative
- mutagenic call (Test System: AMES SALMONELLA TYPHIMURIUM, Strain/Indicator: TA100, Metabolic Activation: HAMSTER, LIVER, S-9, AROCLOR 1254 (30%), Method: PREINCUBATION): inactive; negative
- mutagenic call (Test System: AMES SALMONELLA TYPHIMURIUM, Strain/Indicator: TA100, Metabolic Activation: HAMSTER, LIVER, S-9, AROCLOR 1254, Method: PREINCUBATION): inactive; negative
- mutagenic call [5]: inactive; negative
- mutagenic call [6]: inactive; negative
- mutagenic call (Test System: AMES SALMONELLA TYPHIMURIUM, Strain/Indicator: TA100, Metabolic Activation: RAT, LIVER, S-9, AROCLOR 1254 (30%), Method: PREINCUBATION): inactive; negative
- mutagenic call (Test System: AMES SALMONELLA TYPHIMURIUM, Strain/Indicator: TA100, Metabolic Activation: RAT, LIVER, S-9, AROCLOR 1254, Method: PREINCUBATION): inactive; negative
- mutagenic call [7]: inactive; negative
- mutagenic call (Test System: AMES SALMONELLA TYPHIMURIUM, Strain/Indicator: TA1535, Metabolic Activation: HAMSTER, LIVER, S-9, AROCLOR 1254 (30%), Method: PREINCUBATION): inactive; negative
- mutagenic call (Test System: AMES SALMONELLA TYPHIMURIUM, Strain/Indicator: TA1535, Metabolic Activation: HAMSTER, LIVER, S-9, AROCLOR 1254, Method: PREINCUBATION): inactive; negative
- mutagenic call [8]: inactive; negative
- mutagenic call [9]: inactive; negative
- mutagenic call (Test System: AMES SALMONELLA TYPHIMURIUM, Strain/Indicator: TA1535, Metabolic Activation: RAT, LIVER, S-9, AROCLOR 1254 (30%), Method: PREINCUBATION): inactive; negative
- mutagenic call (Test System: AMES SALMONELLA TYPHIMURIUM, Strain/Indicator: TA1535, Metabolic Activation: RAT, LIVER, S-9, AROCLOR 1254, Method: PREINCUBATION): inactive; negative
- mutagenic call (Test System: MOUSE LYMPHOMA, Strain/Indicator: L5178Y (TK+/TK-), Metabolic Activation: NONE, Method: SUSPENSION/PLATE): inactive; negative
- mutagenic call (Test System: MOUSE LYMPHOMA, Strain/Indicator: L5178Y (TK+/TK-), Metabolic Activation: RAT, LIVER, S-9, AROCLOR 1254, Method: SUSPENSION/PLATE): active; positive

SMILES: CCNc1nc(N)nc(Cl)n1
- mutagenic call (Test System: AMES SALMONELLA TYPHIMURIUM, Strain/Indicator: TA97, Metabolic Activation: NONE, Method: STANDARD PLATE): inactive; negative
- mutagenic call (Test System: AMES SALMONELLA TYPHIMURIUM, Strain/Indicator: TA98, Metabolic Activation: NONE, Method: STANDARD PLATE): inactive; negative
- mutagenic call (Test System: AMES SALMONELLA TYPHIMURIUM, Strain/Indicator: TA100, Metabolic Activation: NONE, Method: STANDARD PLATE): inactive; negative
